Blank lines part the entries; values can stand above or below the compound they belong to.
What was measured:
[1] = molecular target: T1, Mineralocorticoid receptor (Rattus norvegicus, UniProt P22199); assay: Displacement of [3H]-Aldosterone from MR in rat renal soluble fraction measured after 18 hrs in presence of glucocorticoid receptor antagonist RU-486 by liquid scintillation counting method
T1 sequence (P22199 whole entry): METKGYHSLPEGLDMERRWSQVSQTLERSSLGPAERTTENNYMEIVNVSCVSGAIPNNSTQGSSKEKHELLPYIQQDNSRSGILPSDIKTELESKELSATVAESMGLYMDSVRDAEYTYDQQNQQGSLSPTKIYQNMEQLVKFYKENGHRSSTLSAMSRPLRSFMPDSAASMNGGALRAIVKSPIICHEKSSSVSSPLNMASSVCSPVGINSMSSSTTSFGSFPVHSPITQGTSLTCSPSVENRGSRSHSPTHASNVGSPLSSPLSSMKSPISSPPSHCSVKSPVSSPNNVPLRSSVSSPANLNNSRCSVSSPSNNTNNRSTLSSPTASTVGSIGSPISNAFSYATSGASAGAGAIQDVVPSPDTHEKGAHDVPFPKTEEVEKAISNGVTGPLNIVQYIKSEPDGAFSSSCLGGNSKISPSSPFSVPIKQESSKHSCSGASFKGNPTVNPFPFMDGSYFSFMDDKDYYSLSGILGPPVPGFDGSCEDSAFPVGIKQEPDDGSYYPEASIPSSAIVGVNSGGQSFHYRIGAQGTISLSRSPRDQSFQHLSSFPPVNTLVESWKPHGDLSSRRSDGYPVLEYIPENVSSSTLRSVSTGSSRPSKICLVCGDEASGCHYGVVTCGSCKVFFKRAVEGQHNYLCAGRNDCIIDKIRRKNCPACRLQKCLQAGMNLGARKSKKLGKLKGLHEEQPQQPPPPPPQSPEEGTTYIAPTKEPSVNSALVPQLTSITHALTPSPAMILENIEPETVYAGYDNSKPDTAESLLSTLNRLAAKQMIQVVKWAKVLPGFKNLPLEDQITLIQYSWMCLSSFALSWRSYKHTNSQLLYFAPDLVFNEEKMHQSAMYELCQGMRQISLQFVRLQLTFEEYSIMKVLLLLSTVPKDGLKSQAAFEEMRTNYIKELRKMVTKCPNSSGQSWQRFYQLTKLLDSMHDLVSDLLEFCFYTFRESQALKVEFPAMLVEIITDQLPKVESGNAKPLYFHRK

[2] = molecular target: T2, Mineralocorticoid receptor (Homo sapiens, UniProt P08235); assay: Binding affinity to MR (unknown origin)
T2 sequence (P08235 whole entry): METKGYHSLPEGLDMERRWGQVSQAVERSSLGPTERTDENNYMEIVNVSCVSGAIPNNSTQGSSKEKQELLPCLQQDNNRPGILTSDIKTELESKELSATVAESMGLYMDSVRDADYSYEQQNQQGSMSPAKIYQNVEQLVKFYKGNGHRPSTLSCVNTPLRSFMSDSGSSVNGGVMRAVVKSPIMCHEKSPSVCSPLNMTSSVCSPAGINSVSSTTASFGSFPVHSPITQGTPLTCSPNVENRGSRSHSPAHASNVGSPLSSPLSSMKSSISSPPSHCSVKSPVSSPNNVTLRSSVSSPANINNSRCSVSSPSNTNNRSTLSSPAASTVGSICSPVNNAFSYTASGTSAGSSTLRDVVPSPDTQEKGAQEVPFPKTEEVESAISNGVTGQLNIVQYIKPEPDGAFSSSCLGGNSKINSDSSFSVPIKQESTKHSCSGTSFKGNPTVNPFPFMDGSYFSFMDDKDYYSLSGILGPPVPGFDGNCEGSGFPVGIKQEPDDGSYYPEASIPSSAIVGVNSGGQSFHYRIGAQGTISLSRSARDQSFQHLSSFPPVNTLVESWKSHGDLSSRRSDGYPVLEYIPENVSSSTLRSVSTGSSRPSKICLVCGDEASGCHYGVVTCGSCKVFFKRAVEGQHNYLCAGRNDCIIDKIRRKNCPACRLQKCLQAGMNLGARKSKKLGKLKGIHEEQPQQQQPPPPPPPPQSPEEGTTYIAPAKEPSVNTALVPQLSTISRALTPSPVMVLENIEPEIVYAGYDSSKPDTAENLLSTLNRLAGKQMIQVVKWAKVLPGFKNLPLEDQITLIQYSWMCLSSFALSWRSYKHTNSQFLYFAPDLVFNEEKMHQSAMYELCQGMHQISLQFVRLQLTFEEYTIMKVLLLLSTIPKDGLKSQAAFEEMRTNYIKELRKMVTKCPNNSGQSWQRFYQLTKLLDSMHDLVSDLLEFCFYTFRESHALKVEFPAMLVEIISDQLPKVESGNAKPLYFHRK

Androgen receptor = molecular target: T3, Androgen receptor (Homo sapiens, UniProt P10275); assay: Antagonist activity at GAL4-fused human AR LBD (667 to 919 residues) expressed in CHO-K1 cells assessed as inhibition of dihydrotestosterone-induced transactivation activity after 5 to 6 hrs by luciferase reporter gene assay; type: cell-based
T3 sequence (P10275 whole entry): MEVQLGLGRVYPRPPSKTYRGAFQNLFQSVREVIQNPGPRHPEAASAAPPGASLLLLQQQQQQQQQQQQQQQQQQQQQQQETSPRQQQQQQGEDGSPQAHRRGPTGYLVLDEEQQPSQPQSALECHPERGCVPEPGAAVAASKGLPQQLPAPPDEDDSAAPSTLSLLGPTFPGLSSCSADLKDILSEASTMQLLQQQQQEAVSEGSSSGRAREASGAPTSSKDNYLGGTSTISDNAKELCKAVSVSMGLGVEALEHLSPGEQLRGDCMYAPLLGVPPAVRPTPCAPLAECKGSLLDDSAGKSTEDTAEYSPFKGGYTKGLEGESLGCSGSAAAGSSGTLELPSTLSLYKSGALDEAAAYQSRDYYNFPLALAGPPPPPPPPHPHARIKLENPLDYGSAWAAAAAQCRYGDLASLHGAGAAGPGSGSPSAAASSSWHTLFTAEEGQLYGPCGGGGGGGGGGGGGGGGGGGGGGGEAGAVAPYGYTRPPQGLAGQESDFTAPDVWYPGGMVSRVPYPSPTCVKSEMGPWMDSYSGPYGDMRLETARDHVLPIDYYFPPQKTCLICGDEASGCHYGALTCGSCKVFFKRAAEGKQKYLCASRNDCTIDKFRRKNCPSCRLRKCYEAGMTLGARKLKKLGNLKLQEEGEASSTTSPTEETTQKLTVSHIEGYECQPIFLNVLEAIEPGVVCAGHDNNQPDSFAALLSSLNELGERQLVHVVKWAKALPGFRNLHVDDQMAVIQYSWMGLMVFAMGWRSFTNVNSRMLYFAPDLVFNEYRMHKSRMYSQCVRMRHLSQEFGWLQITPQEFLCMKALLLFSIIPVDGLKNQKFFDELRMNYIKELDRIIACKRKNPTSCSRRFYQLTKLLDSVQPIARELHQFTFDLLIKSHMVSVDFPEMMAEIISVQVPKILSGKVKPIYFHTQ

Progesterone receptor = molecular target: T4, Progesterone receptor (Homo sapiens, UniProt P06401); assay: Antagonist activity at GAL4-fused human PR LBD (680 to 933 residues) expressed in CHO-K1 cells assessed as inhibition of progesterone-induced transactivation activity after 5 to 6 hrs by luciferase reporter gene assay; type: cell-based
T4 sequence (P06401 whole entry): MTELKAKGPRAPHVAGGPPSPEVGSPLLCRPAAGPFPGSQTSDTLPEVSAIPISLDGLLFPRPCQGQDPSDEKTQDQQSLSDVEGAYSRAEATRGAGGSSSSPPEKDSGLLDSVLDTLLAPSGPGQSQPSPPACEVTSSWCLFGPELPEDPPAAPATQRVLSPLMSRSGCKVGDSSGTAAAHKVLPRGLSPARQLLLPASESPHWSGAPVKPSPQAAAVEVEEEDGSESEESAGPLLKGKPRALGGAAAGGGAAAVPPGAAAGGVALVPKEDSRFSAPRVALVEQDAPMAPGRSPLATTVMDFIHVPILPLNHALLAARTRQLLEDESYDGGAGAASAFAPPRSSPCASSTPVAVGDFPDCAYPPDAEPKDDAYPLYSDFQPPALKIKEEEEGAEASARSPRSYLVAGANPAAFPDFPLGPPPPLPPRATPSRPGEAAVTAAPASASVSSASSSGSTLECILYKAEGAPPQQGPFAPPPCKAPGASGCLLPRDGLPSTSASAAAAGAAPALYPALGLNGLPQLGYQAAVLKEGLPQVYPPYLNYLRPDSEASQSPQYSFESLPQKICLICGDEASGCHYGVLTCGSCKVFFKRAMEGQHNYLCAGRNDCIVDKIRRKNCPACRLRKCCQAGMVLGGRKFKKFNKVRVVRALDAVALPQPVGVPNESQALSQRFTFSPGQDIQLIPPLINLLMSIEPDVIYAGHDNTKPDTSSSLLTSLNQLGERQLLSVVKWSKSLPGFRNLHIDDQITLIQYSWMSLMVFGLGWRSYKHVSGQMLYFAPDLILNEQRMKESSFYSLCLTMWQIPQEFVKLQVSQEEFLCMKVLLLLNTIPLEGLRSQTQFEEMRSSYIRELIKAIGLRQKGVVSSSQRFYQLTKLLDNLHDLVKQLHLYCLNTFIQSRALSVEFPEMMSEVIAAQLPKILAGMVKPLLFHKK

[3] = molecular target: T2, Mineralocorticoid receptor; assay: Antagonist activity at Gal4-fused human MR LBD (734 to 985 residues) expressed in CHO-K1 cells after 5 to 6 hrs by luciferase reporter gene assay; type: cell-based
Glucocorticoid receptor [4] = molecular target: T5, Glucocorticoid receptor (Homo sapiens, UniProt P04150); assay: Antagonist activity at GAL4-fused human GR LBD (443 to 777 residues) expressed in CHO-K1 cells assessed as inhibition of dexamethasone-induced transactivation activity after 5 to 6 hrs by luciferase reporter gene assay; type: cell-based
T5 sequence (P04150 whole entry): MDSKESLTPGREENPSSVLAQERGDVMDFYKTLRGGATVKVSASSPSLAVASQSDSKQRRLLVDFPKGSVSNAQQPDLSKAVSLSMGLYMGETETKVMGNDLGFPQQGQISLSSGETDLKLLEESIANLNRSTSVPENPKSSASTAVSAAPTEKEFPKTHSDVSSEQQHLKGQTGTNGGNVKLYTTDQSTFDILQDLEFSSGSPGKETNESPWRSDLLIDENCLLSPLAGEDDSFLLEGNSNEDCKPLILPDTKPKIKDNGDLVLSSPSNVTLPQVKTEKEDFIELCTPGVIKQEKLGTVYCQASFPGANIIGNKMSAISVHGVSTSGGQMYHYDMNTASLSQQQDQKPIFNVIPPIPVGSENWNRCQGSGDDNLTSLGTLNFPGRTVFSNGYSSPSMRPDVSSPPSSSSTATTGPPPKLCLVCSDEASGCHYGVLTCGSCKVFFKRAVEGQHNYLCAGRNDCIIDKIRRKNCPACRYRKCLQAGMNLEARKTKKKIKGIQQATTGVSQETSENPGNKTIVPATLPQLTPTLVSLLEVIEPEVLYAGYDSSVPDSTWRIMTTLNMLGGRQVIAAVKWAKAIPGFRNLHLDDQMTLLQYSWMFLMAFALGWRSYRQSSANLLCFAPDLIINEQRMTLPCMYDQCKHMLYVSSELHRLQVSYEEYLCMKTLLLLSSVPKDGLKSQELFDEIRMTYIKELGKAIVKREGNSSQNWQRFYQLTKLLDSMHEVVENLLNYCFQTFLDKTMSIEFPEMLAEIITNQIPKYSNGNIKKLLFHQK

[5] = molecular target: T6, Mineralocorticoid receptor (Homo sapiens) (UniProt P08235); assay: Antagonist activity at full-length human MR expressed in CHO-K1 cells assessed as inhibition of aldosterone-induced response measured after overnight incubation by luminesence analysis; type: cell-based
T6 sequence (whole entry): T2 sequence (P08235 whole entry)

[6] = Half life in human liver microsomes; type: ADME, microsome
[7] = Half life in human hepatocytes; type: ADME, cell-based, Hepatocyte
[8] = molecular target: T2, Mineralocorticoid receptor; assay: Displacement of [3H]-Aldosterone from MR overexpressed in human 293 cells measured after overnight incubation by TopCount method; type: cell-based
Glucocorticoid receptor [9] = molecular target: T5, Glucocorticoid receptor; assay: Displacement of [3H]-dexamethasone from GR overexpressed in human 293 cells measured after overnight incubation by TopCount method; type: cell-based

IC50 (Androgen receptor): 2800 nM | IC50 (Progesterone receptor): 5400 nM | IC50 [3]: 47 nM | IC50 (Glucocorticoid receptor [4]): 6900 nM
SMILES: CCOc1nccc2c1[C@H](c1ccc(C#N)cc1OC)C(C#N)=C(C)N2

Inhibitory potency [5]: 7 nM | half-life [6]: 48 min | half-life [7]: 69 min
SMILES: CCC(c1ccc(Br)cc1)(C(C)O)n1ncc2c(NS(C)(=O)=O)cccc21 (stereo unspecified)

The remaining lines, values behind:

SMILES: COc1cc(NC(=O)c2ccc(-c3ccccc3OC(F)(F)F)c(CCN(C)C3CC3)c2)ccc1S(N)(=O)=O
IC50 [1]: 22 nM

SMILES: C[C@]12C[C@H](O)[C@H]3[C@@H](CCC4=CC(=O)CC[C@@]43C)[C@@H]1CC[C@@H]2C(=O)CO [CORTICOSTERONE]
Kd [2]: 0.5 to 2 nM

SMILES: CCOc1ncc(C)c2c1[C@H](c1ccc(C#N)cc1OC)C(C#N)=C(C)N2
IC50 (Androgen receptor): 2400 nM | IC50 (Progesterone receptor): 4200 nM | IC50 [3]: 26 nM | IC50 (Glucocorticoid receptor [4]): 5800 nM

SMILES: Cc1ccc(C(C)(c2c[nH]c3c(NS(C)(=O)=O)cccc23)C2CC2)cc1 (stereo unspecified)
Ki [8]: ≤ 500 nM | Ki (Glucocorticoid receptor [9]): ≤ 500 nM

SMILES: C[C@]12CCC(=O)C=C1CC[C@@H]1[C@@H]2[C@@H](O)C[C@@]2(C)[C@H]1CC[C@]2(O)C(=O)CO [HYDROCORTISONE]
Kd [2]: 0.5 to 2 nM

Reference: ChEMBL document CHEMBL4007392, “Modulating Mineralocorticoid Receptor with Non-steroidal Antagonists. New Opportunities for the Development of Potent and Selective Ligands without Off-Target Side Effects” (J Med Chem, 2017)
